From patent US20120010161A1, “NOVEL AZAPEPTIDE OR AZAPEPTIDOMIMETIC COMPOUNDS INHIBITING BCRP AND/OR P-GP” (CENTRE NATIONAL DE LA RECHERCHE SCIENTIFIQUE, priority 2009, published 2012)
Several values for one entry are separate records, joined by “and”; a condition that tells them apart may be missing. Identical values can stand only once.

Tests used:
BCRP/ABCG2 = target: T1, BCRP/ABCG2 (Homo sapiens, UniProt Q9UNQ0); test: Flow cytometry: mitoxantrone efflux induced by ABCG2 in transfected HEK-293 cells; assay type: cell-based; details: for inhibition at 2 μM / inhibition at 10 μM: human, HEK-293 cells transfected with ABCG2 (vector pcDNA3.1), probe mitoxantrone (5 μM); for inhibition at 2 μM: 2 μM compound, read-out: BCRP/ABCG2 % efficacy 2 μM; for inhibition at 2 μM / inhibition at 10 μM / IC50 / BCRP/ABCG2 IC50, μM: mitoxantrone efflux, HEK-293 cells; for inhibition at 10 μM: 10 μM compound, three independent experiments, read-out: BCRP/ABCG2 % efficacy 10 μM
T1 construct: expressed in transfected cells; host or cells: HEK-293 transfected with pcDNA3.1-ABCG2
T1 sequence (Q9UNQ0 1-655): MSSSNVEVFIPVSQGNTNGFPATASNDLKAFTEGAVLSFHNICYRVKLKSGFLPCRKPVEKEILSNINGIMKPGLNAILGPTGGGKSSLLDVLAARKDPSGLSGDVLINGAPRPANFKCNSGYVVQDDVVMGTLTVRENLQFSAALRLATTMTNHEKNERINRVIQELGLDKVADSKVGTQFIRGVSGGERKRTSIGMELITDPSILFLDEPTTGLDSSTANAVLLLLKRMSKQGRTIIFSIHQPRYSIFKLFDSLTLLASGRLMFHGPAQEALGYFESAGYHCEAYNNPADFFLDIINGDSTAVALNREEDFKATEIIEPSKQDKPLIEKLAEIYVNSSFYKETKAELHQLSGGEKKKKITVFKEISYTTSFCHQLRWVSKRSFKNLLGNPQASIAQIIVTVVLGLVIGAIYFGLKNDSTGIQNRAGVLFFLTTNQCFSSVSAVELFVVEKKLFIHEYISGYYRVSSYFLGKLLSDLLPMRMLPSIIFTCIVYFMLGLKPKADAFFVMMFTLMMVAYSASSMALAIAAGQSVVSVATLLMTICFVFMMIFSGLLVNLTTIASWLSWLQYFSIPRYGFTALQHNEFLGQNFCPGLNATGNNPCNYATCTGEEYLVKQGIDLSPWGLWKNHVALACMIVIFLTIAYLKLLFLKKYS
Excerpt: (§1) Cell cultures. The human […] HEK-293 transfected with the vector pcDNA3.1 including or not the gene encoding ABCG2 (Robey, R. W., Honjo, Y., Morisaki, K., Nadjem, T. A., Runge, S., Risbood, M., Poruchynsky, M. S., Bates, S. E. 2003, Br. J. Cancer 89(10) 1971-1978) was used to test the efficacy of the products on ABCG2. The newborn hamster kidney cell line BHK21 either natural (negative control) or transfected with the vector pNUT-MRP/His expressing the gene encoding ABCC1 (Chang, Xiu-Bao, Hou, Yue-Xian, Riordan, John R. 1997, J. Biol. Chem. 272(49) 30962-30968) was used to test the efficacy of the products on ABCC1. The cell line NIH3T3 natural or transfected with the vector pHaMDR1/A expressing ABCB1 (Cardarelli, Carol O., Aksentijevich, Ivan, Pastan, Ira, Gottesman, Michael M. 1995 Cancer Res. 55 1086-1091) was used to test the efficacy of the compounds on ABCB1. The various cell types are cultured according to the protocols described previously (Robey, R. W., Honjo, Y., Morisaki, K., Nadjem, T. A., Runge, S., Risbood, M., Poruchynsky, M. S., Bates, S. E. 2003, Br. J. Cancer 89(10) 1971-1978 for the line HEK293, Chang, Xiu-Bao, Hou, Yue-Xian, Riordan, John R. 1997, J. Biol. Chem. 272(49) 30962-30968 for the line BHK21 and Cardarelli, Carol O., Aksentijevich, Ivan, Pastan, Ira, Gottesman, Michael M. 1995 Cancer Res. 55 1086-1091 for the line NIH3T3).
(§2) FIG. 1 schematically illustrates an efflux of substrate induced by a typical ABC transporter. The substrates S, such as mitoxantrone effluxed with ABCG2 and ABCB1 or daunorubicin effluxed with ABCC1, are accumulated in the cells and expelled by the transporter T, leading to a decrease in intracellular fluorescence. In the case of accumulation of the product, typically by inhibition of the efflux protein, the intracellular fluorescence increases.
Flow cytometry. Transfected or untransfected HEK-293 and BHK-21 cells are in a first stage placed in contact with substrate (5 μM mitoxantrone or 1 μM daunorubicin depending on the transporter). The substrate is accumulated for 30 minutes at 37° C. in the presence or absence of varied concentrations of the test molecules, at 0.5% of DMSO final. After washing with PBS, the cells are incubated in medium containing the same concentrations of test molecules as previously, for 1 hour at 37° C. The drug intracellular fluorescence is measured with a FACscan flow cytometer (Becton Dickinson, Mountain View, Calif.). The fluorescent substrates are excited at 488 nm; the fluorescence emission of mitoxantrone (MTX) is measured at 650 nm and that of daunorubicin is measured at 530 nm. The efficacy of the test molecules is estimated by means of equation 1:
% efficacy=100×(FA−FBG)/(FC−FBG),
in which: • FA corresponds to the intracellular level of substrate measured in the cells overexpressing the transporter T (corresponding to the lowest level of fluorescence in the absence of inhibitor), • FC corresponds to the fluorescence in the control cells not expressing the test transporter. This is thus the maximum accumulation of substrate in the cells), • FBG corresponds to the fluorescence measured in the absence of substrate and in the presence of inhibitor.
The compounds presented in TABLES 2 to 5 were tested by flow cytometry on mammalian cell lines selectively expressing the efflux proteins ABCG2, ABCB1 or ABCC1, as described previously.
The mitoxantrone efflux induced by ABCG2 or ABCB1 and the daunorubicin efflux induced by ABCC1 are estimated by flow cytometry, as described previously, at 10 μM of each test compound, and then at 2 μM for the compounds showing at least 80% efficacy at 10 μM. The concentration inducing 50% inhibition (IC50) was estimated for the most efficient aza derivatives. The values are obtained by three independent experiments and were adjusted using the SigmaPlot software.

MRP1/ABCC1 = target: T2, MRP1/ABCC1 (Homo sapiens, UniProt P33527); test: Flow cytometry: daunorubicin efflux induced by ABCC1 in transfected BHK21 cells; assay type: cell-based; details: probe daunorubicin (1 μM), 10 μM compound, read-out: MRP1/ABCC1 % efficacy 10 μM
T2 construct: His; expressed in transfected cells; host or cells: BHK21 (newborn hamster kidney) transfected with pNUT-MRP/His
Excerpt: as §1, with “The various cell types are cultured according to the protocols described previously (Robey, R. W., Honjo, Y., Morisaki, K., Nadjem, T. A., Runge, S., Risbood, M., Poruchynsky, M. S., Bates, S. E. 2003, Br. J. Cancer 89(10) 1971-1978 for the line HEK293, Chang, Xiu-Bao, Hou, Yue-Xian, Riordan, John R. 1997, J. Biol. Chem. 272(49) 30962-30968 for the line BHK21 and Cardarelli, Carol O., Aksentijevich, Ivan, Pastan, Ira, Gottesman, Michael M. 1995 Cancer Res. 55 1086-1091 for the line NIH3T3).” left out
as §2
Flow cytometry. […] The drug intracellular fluorescence is measured with a FACscan flow cytometer (Becton Dickinson, Mountain View, Calif.). The fluorescent substrates are excited at 488 nm; the fluorescence emission of mitoxantrone (MTX) is measured at 650 nm and that of daunorubicin is measured at 530 nm. […]
in which: • FA corresponds to the intracellular level of substrate measured in the cells overexpressing the transporter T (corresponding to the lowest level of fluorescence in the absence of inhibitor), • FC corresponds to the fluorescence in the control cells not expressing the test transporter. […]

T2 sequence (P33527 whole entry): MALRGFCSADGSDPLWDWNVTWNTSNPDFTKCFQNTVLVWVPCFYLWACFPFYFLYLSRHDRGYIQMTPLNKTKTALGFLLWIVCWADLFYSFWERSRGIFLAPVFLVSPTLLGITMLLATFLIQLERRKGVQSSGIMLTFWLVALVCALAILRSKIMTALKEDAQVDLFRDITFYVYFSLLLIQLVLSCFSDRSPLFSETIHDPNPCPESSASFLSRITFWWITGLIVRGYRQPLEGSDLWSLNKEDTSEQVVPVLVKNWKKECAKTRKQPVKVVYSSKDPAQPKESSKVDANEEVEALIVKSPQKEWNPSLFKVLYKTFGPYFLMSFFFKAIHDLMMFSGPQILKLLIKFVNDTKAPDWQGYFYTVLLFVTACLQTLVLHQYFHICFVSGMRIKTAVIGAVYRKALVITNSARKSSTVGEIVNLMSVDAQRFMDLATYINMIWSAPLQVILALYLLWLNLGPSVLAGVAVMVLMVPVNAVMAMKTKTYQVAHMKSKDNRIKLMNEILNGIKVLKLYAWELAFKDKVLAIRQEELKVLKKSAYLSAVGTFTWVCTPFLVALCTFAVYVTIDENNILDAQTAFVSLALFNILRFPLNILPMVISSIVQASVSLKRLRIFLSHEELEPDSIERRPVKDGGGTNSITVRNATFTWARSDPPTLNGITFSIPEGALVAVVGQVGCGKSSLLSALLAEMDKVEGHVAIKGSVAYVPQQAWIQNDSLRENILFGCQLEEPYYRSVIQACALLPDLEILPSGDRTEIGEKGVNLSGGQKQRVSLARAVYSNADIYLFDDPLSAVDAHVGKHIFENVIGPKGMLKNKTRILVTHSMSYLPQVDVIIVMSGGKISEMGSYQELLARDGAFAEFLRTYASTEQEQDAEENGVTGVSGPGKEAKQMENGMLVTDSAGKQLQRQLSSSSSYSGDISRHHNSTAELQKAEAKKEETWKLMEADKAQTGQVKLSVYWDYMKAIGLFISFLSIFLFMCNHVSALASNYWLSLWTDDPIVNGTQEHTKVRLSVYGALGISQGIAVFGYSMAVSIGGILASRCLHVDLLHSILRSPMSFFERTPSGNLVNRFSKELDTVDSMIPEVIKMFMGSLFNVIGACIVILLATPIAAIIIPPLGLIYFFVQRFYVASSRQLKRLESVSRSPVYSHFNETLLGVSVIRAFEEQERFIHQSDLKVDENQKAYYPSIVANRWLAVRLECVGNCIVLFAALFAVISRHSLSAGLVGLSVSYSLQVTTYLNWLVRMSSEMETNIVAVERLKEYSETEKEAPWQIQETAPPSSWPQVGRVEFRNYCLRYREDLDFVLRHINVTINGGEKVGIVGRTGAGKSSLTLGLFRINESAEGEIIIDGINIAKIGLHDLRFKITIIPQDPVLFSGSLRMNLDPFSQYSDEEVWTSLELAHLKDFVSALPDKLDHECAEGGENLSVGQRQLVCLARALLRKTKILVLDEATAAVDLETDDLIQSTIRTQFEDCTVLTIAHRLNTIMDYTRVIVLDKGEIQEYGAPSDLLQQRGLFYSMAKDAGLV

Row | Structure (SMILES) | selectivity toward one or other of the proteins BCRP or P-gp (BCRP/ABCG2; BCRP versus P-gp) | inhibition at 2 μM (BCRP/ABCG2) [%] | inhibition at 10 μM (BCRP/ABCG2) [%] | IC50 (BCRP/ABCG2) | inhibition at 10 μM (MRP1/ABCC1) [%] | BCRP/ABCG2 IC50, μM (BCRP/ABCG2)
1 | CC(C)(C)OC(=O)NN(C(=O)N[C@@H](CCCCNC(=O)OCc1ccccc1)C(=O)OC(C)(C)C)c1cccc(C(=O)OCc2ccccc2)c1 [IA.2, tert-Butyl ester of (2S)-6-(benzyloxycarbonylamino)-2-[1-(3′-(benzyloxycarbonyl)phenyl)-2-(tert-butoxycarbonyl)hydrazino-carbonylamino]hexanoic acid] | selective | 86 ± 14 | 112 ± 26 | 1 µM and 1.06 µM | 5 ± 1 | –
2 | CC(C)(C)OC(=O)N[C@H](CNN(CCCCCCNC(=O)OCc1ccccc1)C(=O)OC(C)(C)C)CC(=O)OCc1ccccc1 [IB.1, Benzyl ester of (3S)-4-[2-(6-benzyloxycarbonylaminohexyl)-2-tert-butoxycarbonylhydrazino]-3-tert-butoxycarbonylaminobutyric acid] | – | 72 ± 1 | 87 ± 27 | 0.9 ± 0.05 µM | 5 ± 1 | micromolar or submicromolar
3 | CC(C)(C)OC(=O)NN(C(=O)N[C@@H](CCCCNC(=O)OCc1ccccc1)C(=O)OC(C)(C)C)c1ccccc1C(=O)OCc1ccccc1 [IA.1, tert-Butyl ester of (2S)-6-(benzyloxycarbonylamino)-2-[1-(2′-(benzyloxycarbonyl)phenyl)-2-(tert-butoxycarbonyl)hydrazino-carbonylamino]hexanoic acid] | – | 53 ± 10 | 112 ± 6 | 2 µM | 14 ± 3 | –
4 | CC(C)(C)OC(=O)N[C@H](CNN(CCCCCCNC(=O)OCc1ccccc1)C(=O)OCc1ccccc1)CC(=O)OCc1ccccc1 [IB.11, Benzyl ester of (3S)-4-[2-benzyloxycarbonyl-2-(6-benzyloxycarbonylaminohexyl)hydrazino]-3-tert-butoxycarbonyl-aminobutyric acid] | – | 92 ± 2 | 104 ± 10 | 0.5 ± 0.05 µM | – | micromolar or submicromolar
